# According to article PMC7570910, “8-Hydroxyquinoline Glycoconjugates Containing Sulfur at the Sugar Anomeric Position—Synthesis and Preliminary Evaluation of Their Cytotoxicity” (Molecules, 2020):
# Tests used:
# Assay type in all cases: cell-based
# [1] = tested on: HCT-116 cells; experiment: MTT cytotoxicity assay, HCT-116; settings: Homo sapiens, incubation time 24 h, mean ± SD (n = 3)
# [2] = tested on: Normal Human Dermal Fibroblasts-Neonatal (NHDF-Neo); experiment: MTT cytotoxicity assay, NHDF-Neo; settings: incubation time 24 h, mean ± SD (n = 3)
# Experimental: (§1) In vitro cytotoxicity studies of the obtained building blocks and glycoconjugates were carried out on cell lines characterized by the high expression of GLUT transporters and the strongly changed glucose metabolism (strong Warburg effect). […] Cytotoxicity was evaluated using the MTT assay.
# […] […] The culture media were purchased from EuroClone and HyClone. Fetal bovine serum (FBS) was delivered by EURx, Poland, and Antibiotic Antimycotic Solution (100×) by Sigma-Aldrich, Germany. The cells were cultured under standard conditions at 37 °C in a humidified atmosphere at 5% CO2.
# (§2) The viability of the cells was determined using an MTT (3-[4,5–dimethylthiazol-2-yl]-2,5-diphenyltetrazolium bromide) test (Sigma-Aldrich). Stock solutions of tested compounds were prepared in DMSO and diluted with the appropriate volumes of the growth medium directly before the experiment. […] The cell cultures were incubated for 24 h at 37 °C in a humidified atmosphere of 5% CO2. Then, the culture medium was removed, replaced with the solution of the tested compounds in medium with varying concentrations, and incubated for further 24 h or 72 h. After that, the medium was removed, and the MTT solution (50 µL, 0.5 mg/mL in PBS) was added. After 3 h of incubation, the MTT solution was removed, and the precipitated formazan was dissolved in DMSO. Finally, the absorbance at the 570 nm wavelength was measured spectrophotometrically with the plate reader. The experiment was conducted in at least three independent iterations with four technical repetitions. The IC50 values were calculated using CalcuSyn software (version 2.0, Biosoft, Cambridge, UK).
# [3] = tested on: MCF-7 cells; experiment: MTT cytotoxicity assay, MCF-7; settings: Homo sapiens, MCF7, incubation time 72 h, mean ± SD (n = 3)
# Experimental: as §1
# The human cell line MCF-7 was obtained from collections at the Maria Sklodowska-Curie Memorial Cancer Center and Institute of Oncology, branch in Gliwice, Poland. […] The culture media were purchased from EuroClone and HyClone. Fetal bovine serum (FBS) was delivered by EURx, Poland, and Antibiotic Antimycotic Solution (100×) by Sigma-Aldrich, Germany. The cells were cultured under standard conditions at 37 °C in a humidified atmosphere at 5% CO2.
# as §2
# [4] = tested on: MCF-7 cells; experiment: Influence of metal ions on cellular proliferation (MTT with Cu2+), MCF-7; settings: Homo sapiens, MCF7; MTT assay, 72 h, addition of copper acetate at 100 µM
# Experimental: (§3) Cultured cancer cells, in contrast to in vivo environment, are characterized by a low copper level. Therefore, additional experiments were carried out for compounds whose expected mechanism of action is based on the chelation of metal ions. The antiproliferative activities of glycoconjugates 67, 68, 70, and 71 were tested in the presence of Cu^2+ ions. The effect of the interaction of glycoconjugate complexes with metal ions on cell proliferation was measured by adding a copper salt solution to the growth medium and observing the rate of cell growth compared to copper-untreated cells.
# (§4) During the appropriate experiments, the cells (MCF-7, HCT-116, and NHDF-Neo) were treated with solutions of glycoconjugate 67, 68, 70, or 71 in medium culture, supplemented with 100 µM copper acetate, and then their proliferation was measured by the MTT assay. The control system was cells suspended in medium supplemented with DMSO in the amount used to dissolve the compounds and the addition of the same amount of copper. […] The highest cytotoxic activity of the compounds was observed against the MCF-7 cell line. […] This confirmed the strong sensitivity of breast cancer cells to 8-HQ derivatives.
# It can be seen that the greatest differences in cell survival occurred in the case of MCF-7 cell lines. A significant decrease in the proliferation of MCF-7 cells was observed after treatment with glycoconjugates at a concentration of 50 µM in the presence of Cu^2+ (cell viability 10–28%), compared to experiments with glycoconjugates alone. In this case, the cytotoxicity of glycoconjugates increased about three-fold in the presence of Cu(II) ions. […] For HCT-116 and NHDF-Neo cell lines, only slight differences in cell viability were observed after treatment with free compounds and when […] ions were added.
# (§5) The cells were seeded into 96-well plates at concentration 1 × 10^4 (HCT 116, NHDF-Neo) or 5 × 10^3 (MCF-7) per well. The cell cultures were incubated for 24 h at 37 °C in a humidified atmosphere of 5% CO2. Then, the culture medium was removed, replaced with the solution of the tested compounds in medium with varying concentrations. Additionally, 100 µM solution of Cu(CH3COO)2 was added into wells with tested compounds. After 24 h or 72 h incubation, the MTT assay was performed.
# [5] = tested on: HCT-116 cells; experiment: Influence of metal ions on cellular proliferation (MTT with Cu2+), HCT-116; settings: Homo sapiens, MTT assay, 24 h, addition of copper acetate at 100 µM
# Experimental: as §3, §4, §5
# [6] = tested on: Normal Human Dermal Fibroblasts-Neonatal (NHDF-Neo); experiment: Influence of metal ions on cellular proliferation (MTT with Cu2+), NHDF-Neo; settings: MTT assay, 24 h, addition of copper acetate at 100 µM
# Experimental: as §3, §4, §5
IC50 [4],IC50 [5],Compound,IC50 [1],IC50 [2],IC50 [3],IC50 [6]
,,"Cc1ccc2cccc(O)c2n1 [Compound 2Me8HQ, 8-hydroxyquinaldine, reference compound]",> 800 µM,,,
,,"Oc1cccc2cccnc12 [Compound 8HQ, 8-hydroxyquinoline]",> 800 µM,> 800 µM,0.24 ± 0.01 µM,
,,"CC(=O)OC[C@H]1O[C@@H](Sc2ccc(NC(=O)CN=[N+]=[N-])cn2)[C@H](OC(C)=O)[C@@H](OC(C)=O)[C@@H]1OC(C)=O [Compound 33, (5-azidoacetamide-2-pyridyl) 2,3,4,6-tetra-O-acetyl-1-thio-β-D-glucopyranoside]",13.39 ± 0.1 µM,11.2 ± 0.31 µM,6.39 ± 0.07 µM,
,,"CC(=O)OC[C@H]1O[C@@H](Sc2ccc(NC(=O)CN=[N+]=[N-])cn2)[C@H](OC(C)=O)[C@@H](OC(C)=O)[C@H]1OC(C)=O [Compound 34, (5-azidoacetamide-2-pyridyl) 2,3,4,6-tetra-O-acetyl-1-thio-β-D-galactopyranoside]",541.4 ± 3.73 µM,,383 ± 4.23 µM,
,,"[N-]=[N+]=NCC(=O)Nc1ccc(S[C@@H]2O[C@H](CO)[C@@H](O)[C@H](O)[C@H]2O)nc1 [Compound 35, (5-azidoacetamide-2-pyridyl) 1-thio-β-D-glucopyranoside]",> 800 µM,,> 800 µM,
,,"C#CCOC(=O)Nc1ccc(S[C@@H]2O[C@H](COC(C)=O)[C@@H](OC(C)=O)[C@H](OC(C)=O)[C@H]2OC(C)=O)nc1 [Compound 36, (5-(((prop-2-yn-1-yloxy)carbonyl)amino)-2-pyridyl) 2,3,4,6-tetra-O-acetyl-1-thio-β-D-glucopyranoside]",125 ± 8.98 µM,41.7 ± 3.4 µM,38.3 ± 2.44 µM,
,,C#CCOC(=O)Nc1ccc(S[C@@H]2O[C@H](COC(C)=O)[C@H](OC(C)=O)[C@H](OC(C)=O)[C@H]2OC(C)=O)nc1 [Compound 37],456.7 ± 3.85 µM,,392 ± 5.29 µM,
,,C#CCOC(=O)Nc1ccc(S[C@@H]2O[C@H](CO)[C@@H](O)[C@H](O)[C@H]2O)nc1 [Compound 38],> 800 µM,,> 800 µM,
,,CC(=O)OC[C@H]1O[C@@H](SCc2cn(CCCOc3cccc4cccnc34)nn2)[C@H](OC(C)=O)[C@@H](OC(C)=O)[C@@H]1OC(C)=O [Compound 59],173 ± 3.48 µM,229.1 ± 2.06 µM,153.3 ± 0.25 µM,
,,CC(=O)OC[C@H]1O[C@@H](SCc2cn(CCCOc3cccc4cccnc34)nn2)[C@H](OC(C)=O)[C@@H](OC(C)=O)[C@H]1OC(C)=O [Compound 60],304.8 ± 1.34 µM,421.2 ± 0.14 µM,212 ± 3.46 µM,
,,CC(=O)OC[C@H]1O[C@@H](SCc2cn(CCCOc3cccc4ccc(C)nc34)nn2)[C@H](OC(C)=O)[C@@H](OC(C)=O)[C@@H]1OC(C)=O [Compound 61],108 ± 1.62 µM,260 ± 7.65 µM,130.4 ± 0.2 µM,
,,CC(=O)OC[C@H]1O[C@@H](SCc2cn(CCCOc3cccc4ccc(C)nc34)nn2)[C@H](OC(C)=O)[C@@H](OC(C)=O)[C@H]1OC(C)=O [Compound 62],324 ± 1.61 µM,667.6 ± 6.43 µM,244 ± 3.04 µM,
,,OC[C@H]1O[C@@H](SCc2cn(CCCOc3cccc4cccnc34)nn2)[C@H](O)[C@@H](O)[C@@H]1O [Compound 63],> 800 µM,,> 800 µM,
,,Cc1ccc2cccc(OCCCn3cc(CS[C@@H]4O[C@H](CO)[C@@H](O)[C@H](O)[C@H]4O)nn3)c2n1 [Compound 65],> 800 µM,,> 800 µM,
,,Cc1ccc2cccc(OCCCn3cc(CS[C@@H]4O[C@H](CO)[C@H](O)[C@H](O)[C@H]4O)nn3)c2n1 [Compound 66],> 800 µM,,> 800 µM,
28.9 ± 1.52 µM,74.5 ± 0.16 µM,CC(=O)OC[C@H]1O[C@@H](Sc2ccc(NC(=O)Cn3cc(COc4cccc5cccnc45)nn3)cn2)[C@H](OC(C)=O)[C@@H](OC(C)=O)[C@@H]1OC(C)=O [Compound 67],146 ± 3.49 µM,71.8 ± 6.7 µM,69.7 ± 3.5 µM,71.4 ± 1.35 µM
23.8 ± 0.48 µM,96.01 ± 0.59 µM,CC(=O)OC[C@H]1O[C@@H](Sc2ccc(NC(=O)Cn3cc(COc4cccc5cccnc45)nn3)cn2)[C@H](OC(C)=O)[C@@H](OC(C)=O)[C@H]1OC(C)=O [Compound 68],130 ± 1.31 µM,111 ± 2.78 µM,96.3 ± 5.99 µM,83.6 ± 3.03 µM
,,O=C(Cn1cc(COc2cccc3cccnc23)nn1)Nc1ccc(S[C@@H]2O[C@H](CO)[C@@H](O)[C@H](O)[C@H]2O)nc1 [Compound 69],210.4 ± 0.55 µM,163.81 ± 0.01 µM,144 ± 2.68 µM,
25.9 ± 1.76 µM,73.9 ± 2.99 µM,CC(=O)OC[C@H]1O[C@@H](Sc2ccc(NC(=O)OCc3cn(CCCOc4cccc5cccnc45)nn3)cn2)[C@H](OC(C)=O)[C@@H](OC(C)=O)[C@@H]1OC(C)=O [Compound 70],63.5 ± 2.37 µM,64 ± 5.34 µM,67.5 ± 1.58 µM,68.4 ± 1.11 µM
20.5 ± 1.55 µM,83 ± 1.37 µM,CC(=O)OC[C@H]1O[C@@H](Sc2ccc(NC(=O)OCc3cn(CCCOc4cccc5cccnc45)nn3)cn2)[C@H](OC(C)=O)[C@@H](OC(C)=O)[C@H]1OC(C)=O [Compound 71],90.68 ± 0.52 µM,75.26 ± 0.38 µM,68.3 ± 3.68 µM,69.3 ± 2.9 µM
,,O=C(Nc1ccc(S[C@@H]2O[C@H](CO)[C@@H](O)[C@H](O)[C@H]2O)nc1)OCc1cn(CCCOc2cccc3cccnc23)nn1 [Compound 72],> 800 µM,> 800 µM,739.2 ± 3.79 µM,
,,"COc1cccc2c1C(=O)c1c(O)c3c(c(O)c1C2=O)C[C@@](O)(C(=O)CO)C[C@@H]3O[C@H]1C[C@H](N)[C@H](O)[C@H](C)O1 [Doxorubicin, reference compound]",5.59 ± 0.14 µM,> 20 µM,0.67 ± 0.01 µM,
